Broadly, the half-life is the time in which the quantity being followed falls by half.

The source of these data is US12582613B2, “Biomimetic, reactive oxygen species-detonable nanoclusters for antirestenotic therapy” (University of Virginia Patent Foundation, priority 2021, dated 2026).

One data set concerns PDGF-BB-stimulated VSMC. In words: PDGF-BB-induced VSMC proliferation assay (CellTiter-Glo). The data set is classed as cell-based, Human. The note with it: 1 μM RVX equivalent. The procedure:
Cell Culture. Human aortic VSMC and culture media (SmBm-2 basal medium for experimental purposes, and SmGm-2 complete medium for expansion) were purchased from Lonza (Walkersville, MD). Cells between passages 5 and 7 were maintained at 37° C. with 5% CO2 and used for all experiments. As established in previous studies, Accutase (ThermoFisher Scientific, Waltham, MA) instead of Trypsin was used for cell detachment to ensure fast cell adhesion and optimal cell status.
Cell Viability Assay of the Nanoclusters. The cytotoxicity and anti-proliferation of the nanoclusters on VSMC was evaluated by a CellTiter-Glo Luminescent Cell Viability kit according to manufacturer's instructions. VSMC were cultured in 96-well plates ([…] and 8×10^4 cells/well for experiments of proliferation and cytotoxicity, respectively) and grown for overnight. For cytotoxicity study, fresh basal medium (supplemented with 0.5% fetal bovine serum) containing NC with different concentrations were added into the plates. For proliferation study, VSMC were treated with 20 nM PDGF-BB to stimulate ROS and proliferation. […] Following 10 min incubation at room temperature, the 96-well plates were analyzed in a FlexStation 3 Benchtop Multi-Mode Microplate Reader (Molecular Devices, San Jose, California) (250-ms integration).
Background: In ATP-based viability assays light output follows the ATP content of the culture.

Data set [1] relates to balloon-injured carotid arteries. Put plainly: Morphometric analysis of IH and restenosis in rat carotid artery balloon angioplasty model. Particulars: in vivo. The procedure: Rat Carotid Artery Balloon Angioplasty Model. All animal experiments conform to the protocols approved by the Animal Care and Use Committee (ACUC) of the University of Virginia. All adult male Sprague-Dawley rats (Charles River, weighing 300-350 g) were maintained in a temperature and humidity-controlled SPF level animal facility under a 12 h light-dark cycle. Food and water were available ad libitum. Animals were randomly assigned to each treatment group. The carotid artery balloon injury model was operated as previously described. In brief, after anesthesia with isoflurane (5% for inducing and 2% for maintaining), a mid-line incision in the neck was made, and the carotid arteries and carotid bifurcation were exposed by blunt dissection. The proximal of left carotid artery, inner carotid artery, and external carotid artery were then temporarily ligated with 5-0 nylon suture to avoid excessive blood loss during the surgery. A 1 mm arteriotomy was created on the distal segment of the external carotid arteries. […] Area inside external elastic lamina (EEL area), area inside internal elastic lamina (IEL area), lumen area, intima area (=IEL area—lumen area), and media area (=EEL area—IEL area) were calculated using Image J. Intimal hyperplasia was defined as the ratio of intima area versus media area (Intima-to-media ratio, I/M ratio).

The conditions of data set [2]: in vivo; cited from earlier work.

For the compound `COc1cc(OC)c2c(=O)[nH]c(-c3cc(C)c(OCCO)c(C)c3)nc2c1` [RVX], the “effect on VSMC proliferation” value in the data set with PDGF-BB-stimulated VSMC is listed as “failed to exert any notable effect”. The “intimal hyperplasia, intima-to-media (I/M) ratio” value in data set [1] is on record as “neither free RVX solution nor that delivered through conventional PLGA NP led to any significant changes”. For the same compound, the half-life in data set [2] was 1.5 h.
